The source of these data is patent US11708326B2, “Immunomodulator compounds” (CHEMOCENTRYX, INC., priority 2017, dated 2023).

Some results are limits rather than exact numbers.

Chain of human PD-L1 / Human PD-1 (Q9NZQ7 19-239): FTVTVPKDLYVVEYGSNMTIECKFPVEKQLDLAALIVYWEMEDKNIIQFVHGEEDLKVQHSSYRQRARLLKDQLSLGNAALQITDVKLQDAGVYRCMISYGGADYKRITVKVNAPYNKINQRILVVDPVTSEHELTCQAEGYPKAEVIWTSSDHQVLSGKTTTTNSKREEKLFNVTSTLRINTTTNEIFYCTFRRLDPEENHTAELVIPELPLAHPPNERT

The test addresses human PD-L1 / Human PD-1 (Homo sapiens (Human), UniProt Q9NZQ7). The test can be described thus: Enzyme-Linked Immunosorbent Assay (ELISA), human PD-1 binding to plate-coated human PD-L1. As to conditions: PD-1/PD-L1 ELISA, absorbance at 450 nm. On the procedure: Biological Example: Enzyme-Linked Immunosorbent Assay—ELISA
96 Well plates were coated with 1 μg/mL of human PD-L1 (obtained from R&D) in PBS overnight at 4° C. The wells were then blocked with 2% BSA in PBS (W/V) with 0.05% TWEEN-20 for 1 hour at 37° C. The plates were washed 3 times with PBS/0.05% TWEEN-20 and the compounds were serial diluted (1:5) in dilution medium and added to the ELISA plates. Human PD-1 and biotin 0.3 μg/mL (ACRO Biosystems) were added and incubated for 1 hour at 37° C. then washed 3 times with PBS/0.05% TWEEN-20. A second block was performed with 2% BSA in PBS (W/V)/0.05% TWEEN-20 for 10 min at 37° C. and was washed 3 times with PBS/0.05% TWEEN-20. Streptavidin-HRP was added for 1 hour at 37° C. then washed 3 times with PBS/0.05% TWEEN-20. TMB substrate was added and reacted for 20 min at 37° C. A stop solution (2 N aqueous H2SO4) was added. The absorbance was read at 450 nm using a micro-plate spectrophotometer.
In the case of `N#Cc1cncc(COc2cc(O[C@H]3CCc4c(-c5cccc(OCCCn6ccnc6)c5Cl)cccc43)c(Cl)cc2CN[C@@H]2CCCC[C@@H]2O)c1`, the IC50 (usually the concentration needed to halve the response being measured) lay in the range of 5 to 500 nM. `CCOc1cc(NC2CCc3c(-c4cccc(OCCCN5CCCC5(C)C)c4C)cccc32)c(Cl)cc1CNC[C@@H]1CCC(=O)N1` (stereo partly shown) yielded an IC50 of 5 to 500 nM. `CCOc1cc(O[C@@H]2c3cccc(-c4cccc(OCCCN5CCC(C)(F)CC5)c4C)c3C[C@@H]2F)c(Cl)cc1CNC(C(=O)NS(C)(=O)=O)[C@@H](C)O` (stereo partly shown): the IC50 was in the range of 5 to 500 nM.

On to `C[C@@](CO)(NCc1cc(Cl)c(OC2CCc3c(-c4cccc(OCCCN5CC(O)C5)c4Cl)cc(F)cc32)cc1OCc1cncc(C#N)c1)C(=O)O` (stereo partly shown), for which the IC50 was at most 5 nM.

As for `CCOc1cc(NC2CCc3c(-c4cccc(OCCCN5CCC(C)(F)CC5)c4C)cccc32)c(Cl)cc1CNC[C@@H]1CCC(=O)N1` (stereo partly shown), the IC50 lay in the range of 5 to 500 nM. The molecule `N#Cc1cncc(COc2cc(O[C@H]3CCc4c(-c5cccc(OCCCN6CCC(F)CC6)c5Cl)cccc43)c(Cl)cc2CN[C@@H]2CCCC[C@H]2F)c1` gave an IC50 of 5 to 500 nM. `COc1cc(OC2CCc3c(-c4cccc(OCCCN5CC(O)C5)c4Cl)cccc32)cc(OC)c1CN[C@@](C)(CO)C(=O)O` (stereo partly shown) registered an IC50 of 5 to 500 nM.

`Cc1c(OCCCN2CCC(F)CC2)cccc1-c1cc(F)cc2c1CCC2Oc1cc(OCc2cc(C#N)cc(C#N)c2)c(CN[C@H]2CCC(=O)NC2)cc1Cl` (stereo partly shown) gave an IC50 of 5 to 500 nM.

In the case of `Cc1c(OCCCN2CCC(O)CC2)cccc1-c1cccc2c1CC[C@@H]2Oc1cc(OCc2cncc(C#N)c2)c(CN[C@@](C)(CO)C(=O)O)cc1Cl`, the IC50 was at most 5 nM. Molecule `Cc1c(OCCCN2CCC(O)CC2)cccc1-c1cccc2c1CC[C@@H]2Oc1cc(OCCCN2CC[C@@H](O)C2)c(CN[C@@H]2CCCC[C@@H]2O)cc1Cl` displayed an IC50 of at most 5 nM.
